In patent US20020183256A1, “Cytostatic-integrin conjugates having specifically cleavable linking units” (priority 2000, published 2002):
Like-named read-outs stand apart in the source and are kept apart here. *1 amine or outer side, *2 acyl side, *3 side chain or, on linkers, in order; H or OH if unused. Where a SMILES comes first, the peptide text is derived from it. [ ]: non-standard residue; d: D form. The star is where a group is joined. X6 = O=C(O)CC(NS(=O)(=O)c1ccc(-c2cccc(NC(=O)Nc3nc4ccccc4[nH]3)c2)cc1)c1cccc(N*)c1; Camptothecin(20R,20-O) = CC[C@]1(O*)C(=O)OCc2c1cc1n(c2=O)Cc2cc3ccccc3nc2-1; X2 = CCCNC(=O)Nc1cccc(S(=O)(=O)Nc2cccc(C(CC(=O)O)NC(=O)Nc3ccc(N*)cc3)c2)c1; X5 = O=C(Nc1cccc(-c2cccc(S(=O)(=O)*)c2)c1)Nc1nc2ccccc2[nH]1; X1 = CCCNC(=O)Nc1cccc(S(=O)(=O)Nc2cccc(C(CC(=O)O)N*)c2)c1; NH(1,4-C6H4)NHCS = S=C(Nc1ccc(N[*:1])cc1)[*:2]; X4 = O=C(O)CC(N[*:1])c1cccc(NC(=S)[*:2])c1; CO = O=C([*:1])[*:2]; GABA = NCCCC(=O)O

Legend:
B16F10 = assay: Growth inhibition test (MTT), cytotoxic action on tumour cell lines; type: cell-based, mouse
Experimental: (§1) The human large intestine cell lines SW 480 and HT29 (ATCC No. CCL 228 and HTB38 and the mouse melanoma cell line B16F10 (CRL 6475) were grown to confluence in Roux dishes in RPMI 1640 medium with addition of 10% FCS. They were then trypsinized and taken up in RPMI plus 10% FCS to a cell count of 50,000 cells or, for B16F10, 20,000 cells per ml. 100 μl of cell suspension/well were added to a 96 microwell plate and incubated at 37° C. for 1 day in a CO2 incubator. A further 100 μl of RPMI medium and 1 μl of DMSO were then added with the test substances. The growth was checked after day 6. For this, 25 μl of MTT solution (3-(4,5-dimethylthiazol-2-yl)-2,5-diphenyltetrazolium bromide) was added to each well at a starting concentration of 5 mg/ml of H2O. The plate was incubated at 37° C. for 5 hours in a CO2 incubator. The medium was then aspirated and 100 μl of i-propanol/well were added. After shaking with 100 μl of H2O for 30 min, the extinction was measured at 595 nm using a Multiplate Reader (BIO-RAD) 3550-UV).
(§2) The cytostatic action is indicated in Table 2 as an IC50 value, in each case for the individual cell lines.

αvβ3 receptor = target: T1, αvβ3 receptor (Homo sapiens, UniProt P05106+P06756); assay: αvβ3 binding test (echistatin displacement, WGA SPA beads); conditions: αvβ3 from human A375 cells
T1 construct: αvβ3 from human A375 cells was purified; endogenous in cells; host or cells: human A375 cells (receptor purified from the cells, analogous to Wong et al. 1996)
T1 sequence (P06756 31-889 limits assumed): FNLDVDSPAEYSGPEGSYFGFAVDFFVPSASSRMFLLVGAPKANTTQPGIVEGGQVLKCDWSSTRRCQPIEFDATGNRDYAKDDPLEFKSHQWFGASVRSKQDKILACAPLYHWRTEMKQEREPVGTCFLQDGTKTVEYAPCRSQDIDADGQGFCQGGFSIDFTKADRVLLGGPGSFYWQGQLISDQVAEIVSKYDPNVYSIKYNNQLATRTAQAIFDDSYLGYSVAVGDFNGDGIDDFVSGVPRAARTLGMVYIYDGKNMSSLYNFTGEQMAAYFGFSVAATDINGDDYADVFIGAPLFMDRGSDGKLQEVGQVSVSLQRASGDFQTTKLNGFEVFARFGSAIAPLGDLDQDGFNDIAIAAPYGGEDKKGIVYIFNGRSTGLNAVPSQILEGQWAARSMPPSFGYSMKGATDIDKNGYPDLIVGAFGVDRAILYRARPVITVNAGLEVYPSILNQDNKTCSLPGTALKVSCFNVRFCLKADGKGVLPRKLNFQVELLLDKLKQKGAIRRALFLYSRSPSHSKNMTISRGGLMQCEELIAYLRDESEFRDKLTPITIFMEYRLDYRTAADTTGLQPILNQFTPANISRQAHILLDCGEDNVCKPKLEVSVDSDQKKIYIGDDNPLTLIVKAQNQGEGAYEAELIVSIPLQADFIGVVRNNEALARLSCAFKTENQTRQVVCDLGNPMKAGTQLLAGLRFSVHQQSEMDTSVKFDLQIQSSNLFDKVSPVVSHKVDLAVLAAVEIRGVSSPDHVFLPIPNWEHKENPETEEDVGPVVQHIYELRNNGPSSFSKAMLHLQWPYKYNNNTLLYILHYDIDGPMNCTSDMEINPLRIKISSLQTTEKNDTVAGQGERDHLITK
T1 sequence (P06756 891-1048 partner limits assumed): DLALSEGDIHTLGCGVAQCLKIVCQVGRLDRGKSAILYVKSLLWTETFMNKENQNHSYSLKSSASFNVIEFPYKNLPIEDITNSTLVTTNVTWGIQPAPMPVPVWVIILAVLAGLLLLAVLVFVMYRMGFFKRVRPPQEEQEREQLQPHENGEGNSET
T1 sequence (P05106 27-788): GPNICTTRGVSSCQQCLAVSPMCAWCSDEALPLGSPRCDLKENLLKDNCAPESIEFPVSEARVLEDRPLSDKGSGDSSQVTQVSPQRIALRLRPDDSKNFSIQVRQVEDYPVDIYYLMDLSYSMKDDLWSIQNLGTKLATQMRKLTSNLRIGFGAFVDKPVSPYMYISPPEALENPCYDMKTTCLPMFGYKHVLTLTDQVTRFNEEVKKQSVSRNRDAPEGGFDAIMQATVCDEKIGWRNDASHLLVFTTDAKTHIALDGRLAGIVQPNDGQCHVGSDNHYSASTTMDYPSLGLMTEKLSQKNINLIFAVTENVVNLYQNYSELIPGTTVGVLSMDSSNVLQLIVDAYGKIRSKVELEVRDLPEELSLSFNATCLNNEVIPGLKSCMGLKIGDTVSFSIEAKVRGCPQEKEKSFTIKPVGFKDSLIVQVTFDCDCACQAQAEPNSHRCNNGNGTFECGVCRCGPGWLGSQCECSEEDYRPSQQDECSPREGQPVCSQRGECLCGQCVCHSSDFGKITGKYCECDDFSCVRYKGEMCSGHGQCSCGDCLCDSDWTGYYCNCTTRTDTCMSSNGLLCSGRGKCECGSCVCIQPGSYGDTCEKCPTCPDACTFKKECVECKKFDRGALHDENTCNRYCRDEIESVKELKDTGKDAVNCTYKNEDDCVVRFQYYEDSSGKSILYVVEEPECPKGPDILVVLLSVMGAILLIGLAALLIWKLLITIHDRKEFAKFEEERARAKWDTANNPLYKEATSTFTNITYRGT
Experimental: αvβ3 from human A375 cells was purified analogously to a procedure which was described by Wong et al. (Molecular Pharmacology, 50, 529-537 (1996)). In each case, 10 μl of αvβ3 (5 ng) in TBS pH 7.6, 2 mM CaCl2, 1 mM MgCl2, 1% n-octylglucopyranoside (Sigma); 10 μl of test substance in TBS pH 7.6, 0.1% DMSO and 45 μl of TBS pH 7.6, 2 mM CaCl2, 1 mM MgCl2, 1 mM MnCl2 were incubated at room temperature for 1 h. In each case, 25 μl of WGA SPA beads (Amersham, 4 mg/ml) and 10 μl of echistatin (0.1 μCi, Amersham, chloramine-T labelled) were then added. After 16 hours at room temperature, the samples were measured in a scintillation measuring apparatus (Wallac 1450).

SW 480 = assay: Growth inhibition test (MTT), cytotoxic action on tumour cell lines; type: cell-based, human
Experimental: as §1, §2

HT29 = assay: as above; type: cell-based, human
Experimental: as §1, §2

MMP-2 = target: T2, MMP-2 (Homo sapiens, UniProt P08253); assay: Cleavage of conjugates by MMP-2 in buffer (HPLC); type: biochemical; conditions: after 6 h incubation with MMP-2; buffer pH 7.5
T2 construct: purchased Calbiochem
T2 sequence (P08253 110-660): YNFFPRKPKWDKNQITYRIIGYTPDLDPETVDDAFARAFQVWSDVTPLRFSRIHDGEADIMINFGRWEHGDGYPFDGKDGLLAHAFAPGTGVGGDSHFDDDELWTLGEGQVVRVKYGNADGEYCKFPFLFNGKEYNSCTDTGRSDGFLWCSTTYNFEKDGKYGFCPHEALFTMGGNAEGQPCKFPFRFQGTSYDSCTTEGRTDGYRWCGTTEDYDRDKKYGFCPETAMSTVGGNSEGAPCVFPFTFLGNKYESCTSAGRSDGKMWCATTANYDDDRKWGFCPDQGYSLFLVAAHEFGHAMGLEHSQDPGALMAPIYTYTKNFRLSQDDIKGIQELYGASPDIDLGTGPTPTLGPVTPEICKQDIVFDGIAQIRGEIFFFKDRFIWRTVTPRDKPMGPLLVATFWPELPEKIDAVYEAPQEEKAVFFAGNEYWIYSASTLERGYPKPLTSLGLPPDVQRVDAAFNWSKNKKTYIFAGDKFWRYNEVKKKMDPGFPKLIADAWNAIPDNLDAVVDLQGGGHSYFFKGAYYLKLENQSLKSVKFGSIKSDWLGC
Experimental: 2.5 μl MMP-2 (Calbiochem) with a specific activity of 60 μU/μl are incubated with 10 nM of the conjugates exemplified in the example series 1-25 in 1 ml of a medium consisting of 50 mM Tris-HCl pH 7.5, 0.2 M NaCl, 10 mM CaCL2*2H2O and 0.05% Brij 35. The enzyme mediated cleavage of the conjugates is detected by HPLC analysis using an RP18 (5 μM) column with 70% HClO4/water (0.4% v/v) as eluent A and acentonitrile as eluent B (UV detection at […]). The efficiency of the cleavage is assessed by comparing the peak areas of the intact conjugate (starting material) and the cleavage product (tripeptide conjugate of camptothecin) after 6 h and 24 h incubation (cf. Table 5).

[1] = B16F10, MTT after day 6, read-out: IC50 values of the cytotoxic action on tumour cell lines, B16F10
[2] = IC50 values of the binding to the αvβ3 receptor
[3] = SW480, MTT after day 6, read-out: IC50 values of the cytotoxic action on tumour cell lines, SW480
[4] = HT29, MTT after day 6, read-out: IC50 values of the cytotoxic action on tumour cell lines, HT29
[5] = read-out: IC50 values of the binding to the αvβ3 receptor

SMILES	IC50 (B16F10; [1])	IC50 (αvβ3 receptor; [2])	IC50 (SW 480; [3])	IC50 (HT29; [4])	MMP-2 mediated cleavage Peak area product/educt x100 (MMP-2)	IC50 (B16F10; mouse, 6 days)	IC50 (αvβ3 receptor; [5])	IC50 (SW 480; human, 6 days)	IC50 (HT29; human, 6 days)
CCCNC(=O)Nc1cccc(S(=O)(=O)Nc2cccc(C(CC(=O)O)NC(=O)Nc3ccc(NC(=S)N4CCC[C@@H]4C(=O)N[C@@H](CC(C)C)C(=O)NCC(=O)N[C@H](CC(C)C)C(=O)N[C@H](CCCCN)C(=O)N[C@H](C(=O)O[C@@]4(CC)C(=O)OCc5c4cc4n(c5=O)Cc5cc6ccccc6nc5-4)C(C)C)cc3)c2)c1 (stereo partly drawn) [Example 20] ({X1-CO}-[NH(1,4-C6H4)NHCS][dP]LG[dL][dK]V-{Camptothecin(20R,20-O)})	300 nM	50 nM	50 nM	70 nM	–	–	–	–	–
CCCNC(=O)Nc1cccc(S(=O)(=O)Nc2cccc(C(CC(=O)O)NC(=O)Nc3ccc(NC(=O)NCCCC(=O)N4CCC[C@@H]4C(=O)N[C@@H](CC(C)C)C(=O)NCC(=O)N[C@H](CC(C)C)C(=O)N[C@H](CC(N)=O)C(=O)N[C@@H](C(=O)O[C@@]4(CC)C(=O)OCc5c4cc4n(c5=O)Cc5cc6ccccc6nc5-4)C(C)C)cc3)c2)c1 (stereo partly drawn) [Example 18] ({X2-CO-GABA}-[dP]LG[dL][dN][dV]-{Camptothecin(20R,20-O)})	70 nM	20 nM	35 nM	25 nM	51	–	–	–	–
CC[C@]1(OC(=O)[C@H](NC(=O)[C@@H](Cc2c[nH]cn2)NC(=O)[C@@H](CC(C)C)NC(=O)CNC(=O)[C@H](CC(C)C)NC(=O)[C@H]2CCCN2C(=S)Nc2cccc(C(CC(=O)O)NS(=O)(=O)c3cccc(-c4cccc(NC(=O)Nc5nc6ccccc6[nH]5)c4)c3)c2)C(C)C)C(=O)OCc2c1cc1n(c2=O)Cc2cc3ccccc3nc2-1 (stereo partly drawn) [Example 5] (X5-[X4][dP]LG[dL][dH][dV]-{Camptothecin(20R,20-O)})	350 nM	6000 nM	80 nM	100 nM	5	–	–	–	–
CCCNC(=O)Nc1cccc(S(=O)(=O)Nc2cccc(C(CC(=O)O)NC(=O)Nc3ccc(NC(=O)N4CCC[C@@H]4C(=O)N[C@@H](CC(C)C)C(=O)NCC(=O)N[C@H](CC(C)C)C(=O)N[C@H](Cc4c[nH]cn4)C(=O)N[C@@H](C(=O)O[C@@]4(CC)C(=O)OCc5c4cc4n(c5=O)Cc5cc6ccccc6nc5-4)C(C)C)cc3)c2)c1 (stereo partly drawn) [Example 6] ({X2-CO}-[dP]LG[dL][dH][dV]-{Camptothecin(20R,20-O)})	150 nM	60 nM	50 nM	40 nM	33	–	–	–	–
CCCNC(=O)Nc1cccc(S(=O)(=O)Nc2cccc(C(CC(=O)O)NC(=O)Nc3ccc(NC(=S)N4CCC[C@@H]4C(=O)N[C@@H](CC(C)C)C(=O)NCC(=O)N[C@H](CC(C)C)C(=O)N[C@H](CC(N)=O)C(=O)N[C@@H](C(=O)O[C@@]4(CC)C(=O)OCc5c4cc4n(c5=O)Cc5cc6ccccc6nc5-4)C(C)C)cc3)c2)c1 (stereo partly drawn) [Example 9]	–	–	–	–	–	400 nM	30 nM	60 nM	80 nM
CCCNC(=O)Nc1cccc(S(=O)(=O)Nc2cccc(C(CC(=O)O)NC(=O)Nc3ccc(NC(=S)N4CCC[C@@H]4C(=O)N[C@@H](CC(C)C)C(=O)NCC(=O)N[C@H](CC(C)C)C(=O)N[C@H](CSC)C(=O)N[C@@H](C(=O)O[C@@]4(CC)C(=O)OCc5c4cc4n(c5=O)Cc5cc6ccccc6nc5-4)C(C)C)cc3)c2)c1 (stereo partly drawn) [Example 14] ({X1-CO}-[NH(1,4-C6H4)NHCS][dP]LG[dL][dC](Me)[dV]-{Camptothecin(20R,20-O)})	400 nM	70 nM	50 nM	60 nM	5	–	–	–	–
CCCNC(=O)Nc1cccc(S(=O)(=O)Nc2cccc(C(CC(=O)O)NC(=O)Nc3ccc(NC(=S)N4CCC[C@@H]4C(=O)N[C@@H](CC(C)C)C(=O)NCC(=O)N[C@H](CC(C)C)C(=O)N[C@H](Cc4c[nH]cn4)C(=O)N[C@@H](C(=O)O[C@@]4(CC)C(=O)OCc5c4cc4n(c5=O)Cc5cc6ccccc6nc5-4)C(C)C)cc3)c2)c1 (single isomer, unassigned) [Example 3]	–	–	–	–	25	600 nM	45 nM	150 nM	200 nM
CCCNC(=O)Nc1cccc(S(=O)(=O)Nc2cccc(C(CC(=O)O)NC(=O)Nc3ccc(NC(=O)NCCCC(=O)N4CCC[C@@H]4C(=O)N[C@@H](CC(C)C)C(=O)NCC(=O)N[C@H](CC(C)C)C(=O)N[C@H](Cc4c[nH]cn4)C(=O)N[C@@H](C(=O)O[C@@]4(CC)C(=O)OCc5c4cc4n(c5=O)Cc5cc6ccccc6nc5-4)C(C)C)cc3)c2)c1 (stereo partly drawn) [Example 17] ({X2-CO-GABA}-[dP]LG[dL][dH][dV]-{Camptothecin(20R,20-O)})	600 nM	50 nM	70 nM	100 nM	16	–	–	–	–
CCCNC(=O)Nc1cccc(S(=O)(=O)Nc2cccc(C(CC(=O)O)NC(=O)Nc3ccc(NC(=S)N4CCCC4C(=O)NC(CC(C)C)C(=O)NCC(=O)N[C@H](CC(C)C)C(=O)N[C@@H](C(=O)O[C@@]4(CC)C(=O)OCc5c4cc4n(c5=O)Cc5cc6ccccc6nc5-4)C(C)C)cc3)c2)c1 (stereo partly drawn) [Example 8]	350 nM	30 nM	200 nM	150 nM	–	–	–	–	–
CCCNC(=O)Nc1cccc(S(=O)(=O)Nc2cccc(C(CC(=O)O)NC(=O)Nc3ccc(NC(=S)N4CCC[C@@H]4C(=O)N[C@@H](CC(C)C)C(=O)NCC(=O)N[C@H](CSC)C(=O)N[C@H](Cc4c[nH]cn4)C(=O)N[C@@H](C(=O)O[C@@]4(CC)C(=O)OCc5c4cc4n(c5=O)Cc5cc6ccccc6nc5-4)C(C)C)cc3)c2)c1 (stereo partly drawn) [Example 19]	–	–	–	–	–	300 nM	20 nM	60 nM	80 nM
CC[C@]1(OC(=O)[C@H](NC(=O)[C@@H](Cc2c[nH]cn2)NC(=O)[C@@H](CC(C)C)NC(=O)CNC(=O)[C@H](CC(C)C)NC(=O)[C@H]2CCCN2C(=O)Nc2cccc(C(CC(=O)O)NS(=O)(=O)c3ccc(-c4cccc(NC(=O)Nc5nc6ccccc6[nH]5)c4)cc3)c2)C(C)C)C(=O)OCc2c1cc1n(c2=O)Cc2cc3ccccc3nc2-1 (stereo partly drawn) [Example 7] ({X6-CO}-[dP]LG[dL][dH][dV]-{Camptothecin(20R,20-O)})	600 nM	700 nM	150 nM	150 nM	–	–	–	–	–
CCCNC(=O)Nc1cccc(S(=O)(=O)Nc2cccc(C(CC(=O)O)NC(=O)Nc3ccc(NC(=S)N4CCC[C@@H]4C(=O)N[C@@H](CC(C)C)C(=O)NCC(=O)N[C@H](CC(C)C)C(=O)N[C@H](CSC)C(=O)N[C@@H](C(=O)O[C@@]4(CC)C(=O)OCc5c4cc4n(c5=O)Cc5cc6ccccc6nc5-4)C(C)C)cc3)c2)c1 (stereo partly drawn) [Example 13] ({X1-CO}-[NH(1,4-C6H4)NHCS][dP]LG[dL][dC](Me)[dV]-{Camptothecin(20R,20-O)})	400 nM	50 nM	80 nM	100 nM	–	–	–	–	–
